Results reported in patent US20260209304A1, “INSULIN RECEPTOR ANTAGONIST” (The Board of Trustees of the Leland Stanford Junior …, priority 2022, published 2026).
Positions of bridges follow the written chain, without caps; N, C: chain ends. Chains are numbered I, II in the order given. No end group written: not given here.

What was measured:
[1] = biological target: insulin receptor (IR) (Homo sapiens, UniProt P06213); assay: Binding affinity of insulin-core mutants relative to the A13R mutation
[2] = biological target: T1, human insulin receptor (Homo sapiens, UniProt P06213); assay: Cell-based pAKT (Ser473) assay in NIH 3T3 cells overexpressing human insulin receptor; parameters: expressed in transfected cells; host or cells: NIH 3T3 cell line derived from IGF-1R knockout mice (gift from A. Morrione, Thomas Jefferson University)
Method: All the values are shown as mean±SD (n=4). EC50 and IC50 values were calculated by Prism 9 (GraphPad Software, California, USA) with nonlinear regression curve fitting of dose-response asymmetric equation.
Cell-based pAKT and phosphor-IR-beta Assays. The bioactivities of the analogs were evaluated through a cell-based pAKT (Ser473) assay or phospho-IR-beta (Tyr1150/1151) assay. Endogenous levels of pAKT or phosphor-IR-beta were measured in a human insulin receptor overexpressed NIH 3T3 cell line, derived from IGF-1R knockout mice (a generous gift from A. Morrione, Thomas Jefferson University). Cells were cultured in DMEM (Gibco) with 10% fetal bovine serum (FBS, Gibco), 100 U/mL penicillin-streptomycin (Gibco), 2 mg/mL puromycin (Thermo Fisher Scientific), and 1 mg/mL normocin (InvivoGen) at 37° C. under 5% CO2. For the assays, 30,000 cells per well and 100 μl per well, were plated in a 96-well plate with culture media containing 1% FBS. 20 hours later, the media was removed and 50 μl of culture media with different concentrations of native insulin or analog was pipetted into each well. […] After 4 hours of incubation, the plate was read in a SpectraMax iD5 plate reader (Molecular Devices) and the data were processed according to the manufacturer's protocol. […]

[3] = biological target: T1, human insulin receptor; assay: cell-based or functional assay

| Molecule | Agonist Activity (nM), cell-based pAKT assay [3] [nM] | Antagonist Activity (nM), cell-based pAKT assay [3] [nM] | binding affinity relative to the A13R mutation [1] | EC50 [2] [nM] |
| --- | --- | --- | --- | --- |
| I: FVNQHLCGSELVEALYLVCGERGFFYTPK / II: GIVEQCCHRICSLYQLENYCGGSLPETGG (disulfide I:7-II:7, I:19-II:20, II:6-II:11) [Ins-AC-10-9] |  |  | increased | 0.562 |
| I: GIVEQCCHRICSLYQLENYCGGSLPETGGGSLEEEWAQIQSEVWGRGSPSY / II: FVNQHLCGSELVEALYLVCGERGFFYTPK (disulfide I:6-I:11, I:7-II:7, I:20-II:19) [Ins-AC-10-11] |  |  | increased | 0.0115 |

More lines, main results first:

| Agonist Activity (nM), cell-based pAKT assay [3] [nM] | Antagonist Activity (nM), cell-based pAKT assay [3] [nM] | Molecule | binding affinity relative to the A13R mutation [1] | EC50 [2] [nM] |
| --- | --- | --- | --- | --- |
| 0.562 |  | Ins-AC-10-9 (designed binder) chain 1: GIVEQCCHRICSLYQLENYCGGSLPETGG chain 2: FVNQHLCGSELVEALYLVCGERGFFYTPK |  |  |
| 0.0115 | 0.5 | Ins-AC-10-11 (designed binder) chain 1: GIVEQCCHRICSLYQLENYCGGSLPETGGGSLEEEWAQIQSEVWGRGSPSY chain 2: FVNQHLCGSELVEALYLVCGERGFFYTPK |  |  |
